Reference: patent US20040106653A1, “Aminoalcohol derivatives” (FUJISAWA PHARMACEUTICAL CO., LTD., priority 2002, published 2004)

Tested on: carbachol-induced increase in intravesical pressure (IVP) in anesthetized dog
Assay: Effect on the increase in intravesical pressure induced by carbachol in anesthetized dog
Type: in vivo
Conditions: 0.032 mg/kg, intravenous; female Beagle dogs under halothane anesthesia; carbachol 1.8 μg/kg
Method: Effect on the increase in intravesical pressure induced by carbachol in anesthetized dog Test Method Female Beagle dogs weighing 8.0-15.0 kg were fasted for 24 hours and maintained under halothane anesthesia. A 12F Foley catheter was lubricated with water soluble jelly, inserted into the urethral orifice and advanced approximately 10 cm until the balloon tip was placed well inside the bladder. The balloon was then inflated with 5 ml of room air and catheter slowly withdrawn just part the first resistance that is felt at the bladder neck. Urine was completely drained out through the catheter, and 30 ml of biological saline was infused. The catheter was connected to pressure transducer, and intravesical pressure was continuously recorded. Intravenous administration of test compound (I) inhibited carbachol (1.8 μg/kg)-induced increase in intravesical pressure (IVP).

C[C@H](Cc1ccc(S(=O)(=O)c2ccc(C(=O)N(C)CC(=O)O)cc2)cc1)NC[C@H](O)c1cccc(Cl)c1.Cl [Test Compound (1), [[4-[[4-[(2R)-2-[[(2R)-2-(3-Chlorophenyl)-2-hydroxyethyl]amino]propyl]phenyl]sulfonyl]benzoyl]-(methyl)amino]acetic acid hydrochloride]
% inhibition of carbachol-induced increase in IVP: 80.8%
